Results on eight molecules are retold here after ChEMBL document CHEMBL4373673, “Druggability profile of stilbene-derived PPAR agonists: determination of physicochemical properties and PAMPA study” (Medchemcomm, 2019).

Series [1] in a line: Thermodynamic solubility of compound in buffer containing KH2PO4/Na2HPO4 with 1% v/v DMSO at pH 6.8 incubated for 24 hrs by spectrophotometric analysis. The format is physicochemical. As to conditions: for Therm_solubility: buffer, pH 6.8, 24 h; for solubility thermodynamic at 24 h: KH2PO4/Na2HPO4 buffer, pH 6.8, read-out: Therm_solubility.
Series [2] is described as follows: Thermodynamic solubility of compound in buffer containing HCl/KCl with 1% v/v DMSO at pH 1.2 incubated for 24 hrs by spectrophotometric analysis. The format is physicochemical. To be noted: for Therm_solubility: buffer, pH 1.2, 24 h; for solubility thermodynamic at 24 h: HCl/KCl buffer, pH 1.2, read-out: Therm_solubility.
A short description of series [3]: Apparent solubility of compound in fed state simulated intestinal fluid at pH 5 by spectrophotometric analysis. It is filed as physicochemical.
A short description of series [4]: Kinetic solubility of compound in HDM-PAMPA with buffer containing 5% DMSO at pH 7.4 incubated for 5 hrs by spectrophotometric analysis. The format is ADME. As to conditions: read-out: Kinetic_solubility.
Series [5] can be described thus: Octanol/water partition coefficient, logP of compound by RP-UHPLC analysis. It is filed as physicochemical.
Series [6] can be described thus: Kinetic solubility of compound in HDM-PAMPA with buffer containing 5% DMSO at pH 6.8 incubated for 5 hrs by spectrophotometric analysis. The format is ADME. To be noted: for solubility kinetic at 5 h: HDM-PAMPA buffer, pH 6.8, read-out: Kinetic_solubility. (In PAMPA a lipid-coated filter parts donor from acceptor wells.)
Series [7] in a line: Kinetic solubility of compound in HDM-PAMPA with buffer containing 5% DMSO at pH 1.2 incubated for 5 hrs by spectrophotometric analysis. As to conditions: for Kinetic_solubility: pampa, pH 1.2, 5 h; for solubility kinetic at 5 h: HDM-PAMPA buffer, pH 1.2, read-out: Kinetic_solubility. It is filed as ADME.
A short description of series [8]: Thermodynamic solubility of compound in buffer containing KH2PO4/Na2HPO4 with 1% v/v DMSO at pH 7.4 incubated for 24 hrs by spectrophotometric analysis. It is filed as physicochemical. As to conditions: for solubility thermodynamic at 24 h: KH2PO4/Na2HPO4 buffer, pH 7.4, read-out: Therm_solubility.
Series [9] can be described thus: Apparent solubility of compound in fasted state simulated intestinal fluid at pH 6.5 by spectrophotometric analysis. It is filed as physicochemical.
The nature of series [10]: Ratio of compound kinetic solubility to clofibric acid kinetic solubility in HDM-PAMPA with buffer containing 5% DMSO at pH 7.4 incubated for 5 hrs by spectrophotometric analysis.
A short description of series [11]: Ratio of compound kinetic solubility to gemfibrozil kinetic solubility in HDM-PAMPA with buffer containing 5% DMSO at pH 7.4 incubated for 5 hrs by spectrophotometric analysis.
Series [12] can be described thus: Ratio of compound kinetic solubility to clofibric acid kinetic solubility in HDM-PAMPA with buffer containing 5% DMSO at pH 6.8 incubated for 5 hrs by spectrophotometric analysis.
Series [13] in a line: Ratio of compound kinetic solubility to gemfibrozil kinetic solubility in HDM-PAMPA with buffer containing 5% DMSO at pH 6.8 incubated for 5 hrs by spectrophotometric analysis.
Series [14] in a line: Solubility of the compound in water. The format is physicochemical.

By solubility is commonly meant how much of the substance goes into solution per volume. As a reminder, the logP is a log measure of how a compound divides between an organic and an aqueous phase. The low end stands for a more hydrophilic compound, the high end for a more lipophilic compound.

Converted amounts (≈) assume the structure as drawn.

As to `CC(C)(CCCOc1ccc(/C=C/c2ccccc2)cc1)C(=O)O`, the Therm_solubility result is “Insoluble(Bld)” in series [1]; “Insoluble(Bld)” in [2]; “Insoluble(Bld)” in [8] (buffer, pH 7.4, 24 h). In addition, the solubility in series [3] is 7.39 µg/mL (≈ 22.8 µM); in series [9], 8.7 µg/mL (≈ 26.8 µM). Besides, the solubility kinetic at 5 h in series [4] was determined as 13 µg/mL (≈ 40.1 µM); in [6], 13.6 µg/mL (≈ 41.9 µM). Moreover, the log partition coefficient (logP) in [5] was found to be 6.95. Further, the Kinetic_solubility entry in series [7] was “Insoluble(Bld)”.

On to `CC(C)(Oc1ccc(Cl)cc1)C(=O)O` [CLOFIBRIC ACID], for which the solubility thermodynamic at 24 h in series [1], in series [2] and in series [8] was > 50 µg/mL in each case. Besides, the solubility in series [3] and in series [9] was > 50 µg/mL each time. Besides, the solubility kinetic at 5 h in series [4], in series [6] and in series [7] was > 100 µg/mL each time. The molecule also came in with a logP in [5] of 2.96.

`CC(C)(Oc1ccc(CCOc2ccc(/N=N/c3ccccc3)cc2)cc1)C(=O)O`: the solubility thermodynamic at 24 h in series [1] turned out to be 13.9 µg/mL (≈ 34.5 µM); in series [8], 25.5 µg/mL (≈ 62.9 µM). Besides, the Therm_solubility result in series [2] is “Insoluble(Bld)”. In addition, the solubility was > 100 µg/mL in [3] and 63.5 µg/mL (≈ 157 µM) in series [9]. The Ratio in series [10], in [11], in series [12] and in series [13] was 2 to 3 in each case. The solubility kinetic at 5 h in [4] came out at 296 µg/mL (≈ 733 µM); in series [6], 300 µg/mL (≈ 741 µM). In series [5], this molecule gave a logP of 6.63. Besides, the Kinetic_solubility result in [7] is recorded as “Insoluble(Bld)”.

Regarding `CC(C)(Oc1ccc(CCCOc2ccc(/C=C/c3ccccc3)cc2)cc1)C(=O)O`, the figures for the solubility thermodynamic at 24 h in [1] and in series [8] were 27.9 µg/mL (≈ 66.9 µM) and 26.9 µg/mL (≈ 64.7 µM), respectively. Besides, the Therm_solubility result in [2] is given as “Insoluble(Bld)”. For the same molecule, the solubility in [3] is 13.8 µg/mL (≈ 33.3 µM); in [9], 24.8 µg/mL (≈ 59.6 µM). Further, the solubility kinetic at 5 h in series [4] was found to be 43 µg/mL (≈ 103 µM); in series [6], 44.2 µg/mL (≈ 106 µM); in [7], 0.89 µg/mL (≈ 2.14 µM). In series [5], this molecule had a logP of 7.44.

`CCN(C)C(=O)Oc1cccc([C@H](C)N(C)C)c1` [RIVASTIGMINE]: the solubility in series [14] was determined as 2040 µg/mL (≈ 8150 µM).

Take `CC(C)(Oc1ccc(CCCOc2ccc(C(=O)/C=C/c3ccccc3)cc2)cc1)C(=O)O`: the figures for the solubility thermodynamic at 24 h in series [1] and in [8] were 16 µg/mL (≈ 35.9 µM) and 17.5 µg/mL (≈ 39.3 µM), respectively. The Therm_solubility entry in [2] is listed as “Insoluble(Bld)”. For the same molecule, the solubility is 17.8 µg/mL (≈ 39.9 µM) in series [3] and 19.6 µg/mL (≈ 44.2 µM) in series [9]. Also, the solubility kinetic at 5 h was 67.6 µg/mL (≈ 152 µM) in [4] and 68.4 µg/mL (≈ 154 µM) in series [6]. The molecule also showed a logP in [5] of 6.55. The Kinetic_solubility entry in series [7] was “Insoluble(Bld)”.

With `Cc1ccc(C)c(OCCCC(C)(C)C(=O)O)c1` [GEMFIBROZIL], the solubility thermodynamic at 24 h was > 25 µg/mL in [1], 15.5 µg/mL (≈ 61.8 µM) in series [2] and > 25 µg/mL in series [8]. Moreover, the solubility in series [3] and in series [9] was > 25 µg/mL in each case. Moreover, the solubility kinetic at 5 h was > 120 µg/mL in [4], > 120 µg/mL in [6] and 33.2 µg/mL (≈ 133 µM) in series [7]. Moreover, the logP in series [5] is 4.9.

On to `COc1ccc(/C=C/c2ccc(OCCCC(C)(C)C(=O)O)cc2)cc1`, for which the Therm_solubility result in series [1] and in series [2] was “Insoluble(Bld)” each time. For the same molecule, the solubility was 6.23 µg/mL (≈ 17.6 µM) in series [3] and 7.13 µg/mL (≈ 20.1 µM) in series [9]. Further, in series [4], the solubility kinetic at 5 h turned out to be 7.32 µg/mL (≈ 20.7 µM). For the same molecule, in series [5], the lipophilicity (logP) turned out to be 6.08. Also, the Kinetic_solubility result is “Insoluble(Bld)” in series [6] (pampa, pH 6.8, 5 h) and “Insoluble(Bld)” in series [7]. For the same molecule, the solubility thermodynamic at 24 h in [8] came to 1.65 µg/mL (≈ 4.66 µM).
